How the values were obtained:
[1] = test system: IL-6 cytokine output from THP-1s; assay: THP-1 AlphaLISA IL-6 cytokine assay; format: cell-based, human; settings: Homo sapiens; PMA-differentiated THP-1 cells, LPS 24 hr then Nigericin 1 hour
Experimental: Measuring Inhibitory Effects on IL-1β and IL-6 Cytokine Output from THP-1s
The cytokine inhibition profiles of compounds of formula (IW-1) were determined in a differentiated THP-1 cell assay. All assays were performed in RPMI-1640 growth medium (Gibco), supplemented with 10% fetal bovine serum (FBS; Gibco), 1% penicillin-streptomycin and 1% sodium pyruvate unless specified otherwise. The IL-1β and IL-6 cytokine inhibition assays were each run in a background of differentiated THP-1 cells as described below. All reagents described were from Sigma-Aldrich unless specified otherwise. Compounds were prepared as 10 mM DMSO stocks.
THP-1 cells were expanded as a suspension up to 80% confluence in appropriate growth medium. Cells were harvested, suspended, and treated with an appropriate concentration of phorbol 12-myristate 13-acetate (PMA) over a 72 hr period (37° C./5% CO2).
Following 72 hrs of THP-1 cell incubation, cellular medium was removed and replaced with fresh growth media containing 1% of FBS. Working concentrations of compounds were prepared separately in 10% FBS treated growth medium and pre-incubated with the cells for 30 minutes (37° C./5% CO2). Following the 30 minute compound pre-incubation, THP-1s were treated with an appropriate concentration of LPS and the THP-1s were subsequently incubated for a 24 hr period (37° C./5% CO2). An appropriate final concentration of Nigericin was then dispensed into the THP-1 plates and incubated for 1 hour (37° C./5% CO2) before THP-1 supernatants were harvested and collected in separate polypropylene 96-well holding plates.
Reagents from each of the IL-1β and IL-6 commercial kits (Perkin Elmer) were prepared and run according to the manufacturer's instructions. Subsequently, fluorescence signal detection in a microplate reader was measured (EnVision® Multilabel Reader, Perkin Elmer).
Percentage inhibition was calculated per cytokine by normalising the sample data to the high and low controls used within each plate (+/−LPS respectively). Percentage inhibition was then plotted against compound concentration and the 50% inhibitory concentration (IC50) was determined from the resultant concentration-response curve.

[2] = test system: IL-1β cytokine output from THP-1s; assay: THP-1 AlphaLISA IL-1β cytokine assay; format: cell-based, human; settings: Homo sapiens, THP-1, PMA-differentiated THP-1 cells, LPS 24 hr then Nigericin 1 hour; read-out: IL-1β (IC50)
Summary of the method: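 PMA-differentiated (72 h) THP-1 cells pretreated 30 min with compound, LPS-stimulated 24 h, then nigericin 1 h at 37 °C. Supernatant IL-1β and IL-6 by AlphaLISA; % inhibition normalised to ±LPS controls, IC50 from concentration-response curves.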

Row | IC50 [1] [µM] | IC50 [2] [µM] | Compound
1 | 2.5 | 1.3 | C=C(CC(=O)OC1CCCCCCC1)C(=O)OC1CN(C(C)=O)C1 [Example 63, 1-(1-acetylazetidin-3-yl) 4-cyclooctyl 2-methylenesuccinate]
2 | 12.6 | 10.2 | C=C(CC(=O)OC1CCCCC1)C(=O)OC1CCOCC1 [Example 64, 4-cyclohexyl 1-(tetrahydro-2H-pyran-4-yl) 2-methylenesuccinate]
3 | 22.4 | 22.6 | C=C(CC(=O)OC1CCCCC1)C(=O)OCCN1CCCC1=O [Example 65, 4-cyclohexyl 1-(2-(2-oxopyrrolidin-1-yl)ethyl) 2-methylenesuccinate]
4 | 2.5 | 2.3 | C=C(CC(=O)O[C@@H](C)CCCCCC)C(=O)OC1CN(C(C)=O)C1 [Example 66, (S)-1-(1-acetylazetidin-3-yl) 4-(octan-2-yl) 2-methylenesuccinate]
5 | 4.8 | 5.7 | C=C(CC(=O)O[C@@H](C)CCCCCC)C(=O)OC1CS(=O)(=O)C1 [Example 67, (S)-1-(1,1-dioxidothietan-3-yl) 4-(octan-2-yl) 2-methylenesuccinate]
6 | 9.1 | 24 | C=C(CC(=O)OCCCCCCCC)C(=O)OC1(C)COC1 [Example 68, 1-(3-methyloxetan-3-yl) 4-octyl 2-methylenesuccinate]
7 | 9.4 | 6.1 | C=C(CC(=O)OC1CCCCCCC1)C(=O)OC1CCOCC1 [Example 70, 4-cyclooctyl 1-(tetrahydro-2H-pyran-4-yl) 2-methylenesuccinate]
8 | 9.6 | 8.7 | C=C(CC(=O)OC1CCCCCCC1)C(=O)OCCN1CCCC1=O [Example 71, 4-cyclooctyl 1-(2-(2-oxopyrrolidin-1-yl)ethyl) 2-methylenesuccinate]
9 | 8.2 | 11.4 | C=C(CC(=O)O[C@H](C)CCCCCC)C(=O)OCCN1CCCC1=O [Example 72, (R)-4-(octan-2-yl) 1-(2-(2-oxopyrrolidin-1-yl)ethyl) 2-methylenesuccinate]

Second part, the compound before the results:

Row | Compound | IC50 [1] [µM] | IC50 [2] [µM]
10 | C=C(CC(=O)O[C@H](C)CCCCCC)C(=O)OCCS(C)(=O)=O [Example 55, (R)-1-(2-(methylsulfonyl)ethyl) 4-(octan-2-yl) 2-methylenesuccinate] | 3.8 | 5.1
11 | C=C(CC(=O)O[C@H](C)CCCCCC)C(=O)OC(C)CS(C)(=O)=O (stereo partly drawn) [Example 56, 1-(1-(methylsulfonyl)propan-2-yl) 4-((R)-octan-2-yl) 2-methylenesuccinate] | 3.5 | 7.9
12 | C=C(CC(=O)O[C@H](C)CCCCCC)C(=O)OC1CS(=O)(=O)C1 [Example 57, (R)-1-(1,1-dioxidothietan-3-yl) 4-(octan-2-yl) 2-methylenesuccinate] | 2.6 | 4.4
13 | C=C(CC(=O)O[C@H](C)CCCCCC)C(=O)OC1CN(C(C)=O)C1 [Example 58, (R)-1-(1-acetylazetidin-3-yl) 4-(octan-2-yl) 2-methylenesuccinate] | 3.8 | 6.5
14 | C=C(CC(=O)OC1CCCCC1)C(=O)OC(C)CS(C)(=O)=O (stereo not shown) [Example 59, 4-cyclohexyl 1-(1-(methylsulfonyl)propan-2-yl) 2-methylenesuccinate] | 8.8 | 13.3
15 | C=C(CC(=O)OC1CCCCC1)C(=O)OC1CS(=O)(=O)C1 [Example 60, 4-cyclohexyl 1-(1,1-dioxidothietan-3-yl) 2-methylenesuccinate] | 1.4 | 1.9
16 | C=C(CC(=O)OC1CCCCC1)C(=O)OCCS(C)(=O)=O [Example 61, 4-cyclohexyl 1-(2-(methylsulfonyl)ethyl) 2-methylenesuccinate] | 5 | 6.1
17 | C=C(CC(=O)OC1CCCCCCC1)C(=O)OC(C)CS(C)(=O)=O (stereo not shown) [Example 62, 4-cyclooctyl 1-(1-(methylsulfonyl)propan-2-yl) 2-methylenesuccinate] | 2.8 | 3.5

Source: patent US12390437B2, “Itaconic acid derivatives and uses thereof intreating an inflammatory disease or a disease associated with an undesirable immune response” (Sitryx Therapeutics Limited, priority 2019, dated 2025)
